Entries after “also recorded” stand apart in the source; their conditions may differ. Non-standard residues stand in square brackets, D forms with d. Residues, ends and D or L forms follow the SMILES beside them. *: point of attachment. 5FAM = O=C1OC2(c3ccc(O)cc3Oc3cc(O)ccc32)c2ccc(C(=O)*)cc21; Pro(cis-4-guanidino) = NC(N)=N[C@@H]1CN[C@H](C(=O)O)C1; Pro(4S-NH2) = N[C@@H]1CN[C@H](C(=O)O)C1; βAla = NCCC(=O)O
Experiments:
[1] = Peptide stability in culture medium containing 10% FBS (pre-incubation uptake and LC-MS); format: in vitro ADME; details: 0–24 h at 37 °C, then 2 hr with HeLa cells at 37 °C (1 μM, flow cytometry), and LC-MS analysis, 1–24 hr in culture medium containing 10% FBS
Description: Figure S8. (a) Cellular uptake of the peptides 1-5 after 1-24 h pre-incubation (peptide concentration: 1 µM). Values are the means ± standard deviation of three independent Figure 5b. Cellular uptake of the peptides 1-5 LC-MS analsisys. the stability of the peptides (1-24 hr) after 1-24 hr pre-incubation. in culture media containing 10% FBS using LC-MS. cultures. (b) The peptides’ stability (1-24 hr) analysis in culture medium containing FBS using LCCytotoxicity-MS. […]

[2] = test system: HeLa cells; experiment: Time course of cellular uptake (1–24 hr); format: cell-based; details: 37 °C, 1 μM peptide; for stability in culture medium / cellular environment, as concluded from the uptake time course: culture medium containing fetal bovine serum (FBS)
Description: The results of the cytotoxicity analysis, in which HeLa cells were treated with peptides 1–5 for 24 hr at concentrations of 1, 4, and 8 μM, are shown in Fig. S9. […] Next, we investigated the intracellular uptake pathways of R9 and peptide 3. In the presence of various endocytosis inhibitors (amiloride, a macropinocytosis inhibitor[37]; nystatin, a caveolae-mediated endocytosis inhibitor[38]; and sucrose, a clathrin-mediated endocytosis inhibitor[39]), the migration levels of R9 and 3 into the HeLa cells were compared (Fig. S10). […] Then, we investigated the intracellular localization and dynamic behavior of R9 and 3 using fluorescence microscopy. The cells’ late endosomes/lysosomes were stained with LysoTracker Red (red), and their nuclei were stained with Hoechst 33342 (blue). […] As a general approach, peptides that can change their helical structures in accordance with pH fluctuations are often used to promote escape from endosomes. […] We considered that peptide 3 might also directly penetrate the cell membrane more efficiently than R9 (R9 passes through the cell membrane via not only endocytosis but also non-endocytosis pathway, that is, direct permeation to the cell membrane)[44]. Therefore, we investigated the intracellular uptake of peptide 3 at low temperature using flow cytometry and fluorescence microscopy. At low temperature, energy-dependent pathways such as endocytosis are inhibited so it is possible to assess direct peptide penetration via energy-independent pathways. […] Peptides that can directly penetrate through the cell membrane can be used for efficient intracellular delivery as they are not affected by problems associated with the need to escape from endosomes.
Figure 5 (a) Cellular uptake of the peptides 1–5 and R9 after 1–24 hr (peptide concentration: 1 μM). Values are the means ± standard deviation of three independent cultures. (b,c) Peptide 3 and R9 were colocalized with lysosome marker. HeLa cells were treated with 10 μM peptides at 37 °C for 2 hr. The acidic late endosomes/lysosomes were stained with LysoTracker Red (red), and the nuclei were stained with Hoechst 33342 (blue). The scale bars represent 50 μm.
HeLa, A549, Jurkat and CHO-K1 cells were seeded in 6-well dishes at a density of 4.0 × 10^6 cells/well and cultured in DMEM (HeLa, A549), RPMI-1640 (Jurkat) and Ham’s F-12 (CHO-K1) for 24 hr, respectively. The cells were treated with each peptide (peptide concentration; 1 μM) and incubated for each time (1, 2, 4, 8, 16 and 24 hr). Then, the cells were washed three times with phosphate buffer (PBS) supplemented with heparin (20 units/mL) and detached by treatment of trypsin-EDTA. […] Then, the collected cells were suspended in 500 μL of PBS buffer and mean fluorescence intensity in cells was measured by flow cytometer. […]

[3] = test system: HeLa cells; experiment: Uptake in the presence of endocytosis inhibitors; format: cell-based; details: amiloride 25 μM, sucrose 0.4 M or nystatin 25 μg/mL, 1 μM peptide, 1 hr, flow cytometry
Description: The results of the cytotoxicity analysis, in which HeLa cells were treated with peptides 1–5 for 24 hr at concentrations of 1, 4, and 8 μM, are shown in Fig. S9. […] Next, we investigated the intracellular uptake pathways of R9 and peptide 3. In the presence of various endocytosis inhibitors (amiloride, a macropinocytosis inhibitor[37]; nystatin, a caveolae-mediated endocytosis inhibitor[38]; and sucrose, a clathrin-mediated endocytosis inhibitor[39]), the migration levels of R9 and 3 into the HeLa cells were compared (Fig. S10). […] Then, we investigated the intracellular localization and dynamic behavior of R9 and 3 using fluorescence microscopy. The cells’ late endosomes/lysosomes were stained with LysoTracker Red (red), and their nuclei were stained with Hoechst 33342 (blue). […] Therefore, we investigated the intracellular uptake of peptide 3 at low temperature using flow cytometry and fluorescence microscopy. […]
The cells were seeded onto 6-well culture plates (400,000 cells/well) and incubated overnight in 2 mL of DMEM containing 10% FBS. […] Then, fluorescence intensity in the cells was measured as above. […] Statistical differences were analyzed by Student’s t-test. […]
Figure S11. Fluorescence microscopy images of HeLa cells that had been treated with […]

[4] = test system: HeLa cells; experiment: Intracellular localization by fluorescence microscopy (endosomal escape); format: cell-based; details: 10 μM peptide, 37 °C, 15 min–2 hr, LysoTracker Red and Hoechst 33342 staining
Description: The results of the cytotoxicity analysis, in which HeLa cells were treated with peptides 1–5 for 24 hr at concentrations of 1, 4, and 8 μM, are shown in Fig. S9. […] Next, we investigated the intracellular uptake pathways of R9 and peptide 3. In the presence of various endocytosis inhibitors (amiloride, a macropinocytosis inhibitor[37]; nystatin, a caveolae-mediated endocytosis inhibitor[38]; and sucrose, a clathrin-mediated endocytosis inhibitor[39]), the migration levels of R9 and 3 into the HeLa cells were compared (Fig. S10). […] Then, we investigated the intracellular localization and dynamic behavior of R9 and 3 using fluorescence microscopy. The cells’ late endosomes/lysosomes were stained with LysoTracker Red (red), and their nuclei were stained with Hoechst 33342 (blue). […] As a general approach, peptides that can change their helical structures in accordance with pH fluctuations are often used to promote escape from endosomes. […] Therefore, we investigated the intracellular uptake of peptide 3 at low temperature using flow cytometry and fluorescence microscopy. […]
Figure S11. Fluorescence microscopy images of HeLa cells that had been treated with 10 µM of peptides [(a) peptide 3, (b) R9, (c) peptide 2] for 15 min-2 hr at 37 °C. […]
Figure S12. Fluorescence microscopy images of HeLa cells that had been treated with 10 µM of peptides [(a) R9, (b) peptide 3, (c) peptide 2] for 2 hr at 37 °C. […]

Compound | cell-penetrating ability and stability after pre-incubation in medium (in words) [1] | stability in culture medium / cellular environment, as concluded from the uptake time course [2] | effect of endocytosis inhibitors on uptake (in words) [3] | endosomal escape / localization (in words) [4] | cellular uptake over incubation time (in words) ([2]; medium containing FBS, flow cytometry, three independent cultures)
N=C(N)NCCC[C@H](NC(=O)CCNC(=O)c1ccc2c(c1)C(=O)OC21c2ccc(O)cc2Oc2cc(O)ccc21)C(=O)N[C@@H](CCCNC(=N)N)C(=O)N1CCC[C@H]1C(=O)N[C@@H](CCCNC(=N)N)C(=O)N[C@@H](CCCNC(=N)N)C(=O)N1CCC[C@H]1C(=O)N[C@@H](CCCNC(=N)N)C(=O)N[C@@H](CCCNC(=N)N)C(=O)N1CCC[C@H]1C(=O)NCC(=O)NCC(=O)NCC(N)=O [peptide 1, FAM-β-Ala-(L-Arg-L-Arg-L-Pro)3-(Gly)3-NH2] (HELM PEPTIDE1{[O=C1OC2(c3ccc(O)cc3Oc3cc(O)ccc32)c2ccc(C(=O)[*:2])cc21].[bAla].R.R.P.R.R.P.R.R.P.G.G.G.[am]}$$$$V2.0) | sharply fell as the pre-incubation time increased | – | – | – | –
N=C(N)NCCC[C@H](NC(=O)CCNC(=O)c1ccc2c(c1)C(=O)OC21c2ccc(O)cc2Oc2cc(O)ccc21)C(=O)N[C@@H](CCCNC(=N)N)C(=O)N1C[C@@H](N)C[C@H]1C(=O)N[C@@H](CCCNC(=N)N)C(=O)N[C@@H](CCCNC(=N)N)C(=O)N1C[C@@H](N)C[C@H]1C(=O)N[C@@H](CCCNC(=N)N)C(=O)N[C@@H](CCCNC(=N)N)C(=O)N1C[C@@H](N)C[C@H]1C(=O)NCC(=O)NCC(=O)NCC(N)=O [peptide 2, FAM-β-Ala-(L-Arg-L-Arg-L-Pro^NH2)3-(Gly)3-NH2] ({5FAM-βAla}-RR[Pro(4S-NH2)]RR[Pro(4S-NH2)]RR[Pro(4S-NH2)]GGG-NH2) | more chemically stable than R9 and peptide 1 | – | – | – | –
N=C(N)NCCC[C@H](NC(=O)CCNC(=O)c1ccc2c(c1)C(=O)OC21c2ccc(O)cc2Oc2cc(O)ccc21)C(=O)N[C@@H](CCCNC(=N)N)C(=O)N1C[C@@H](NC(=N)N)C[C@H]1C(=O)N[C@@H](CCCNC(=N)N)C(=O)N[C@@H](CCCNC(=N)N)C(=O)N1C[C@@H](NC(=N)N)C[C@H]1C(=O)N[C@@H](CCCNC(=N)N)C(=O)N[C@@H](CCCNC(=N)N)C(=O)N1C[C@@H](NC(=N)N)C[C@H]1C(=O)NCC(=O)NCC(=O)NCC(N)=O [peptide 3, FAM-β-Ala-(L-Arg-L-Arg-L-Pro^Gu)3-(Gly)3-NH2] ({5FAM-βAla}-RR[Pro(cis-4-guanidino)]RR[Pro(cis-4-guanidino)]RR[Pro(cis-4-guanidino)]GGG-NH2) | more chemically stable than R9 and peptide 1; also recorded: remained stable in the medium containing FBS | more stable than R9 | – | – | –
N=C(N)NCCC[C@H](NC(=O)CCNC(=O)c1ccc2c(c1)C(=O)OC21c2ccc(O)cc2Oc2cc(O)ccc21)C(=O)N[C@@H](CCCNC(=N)N)C(=O)N1C[C@@H](NC(=N)N)C[C@H]1C(=O)N1C[C@@H](NC(=N)N)C[C@H]1C(=O)N[C@@H](CCCNC(=N)N)C(=O)N[C@@H](CCCNC(=N)N)C(=O)N[C@@H](CCCNC(=N)N)C(=O)N[C@@H](CCCNC(=N)N)C(=O)N1C[C@@H](NC(=N)N)C[C@H]1C(=O)NCC(=O)NCC(=O)NCC(N)=O [peptide 4, FAM-β-Ala-(L-Arg)2-(L-Pro^Gu)2-(L-Arg)4-L-Pro^Gu-(Gly)3-NH2] ({5FAM-βAla}-RR[Pro(cis-4-guanidino)][Pro(cis-4-guanidino)]RRRR[Pro(cis-4-guanidino)]GGG-NH2) | – | more stable than R9 | – | – | –
nona-arginine [R9, reference compound] | sharply fell as the pre-incubation time increased | unstable | decreased by treatment with amiloride or sucrose | co-localized with the late endosomes/lysosomes | gradually decreased after 1-hr incubation

From paper PMC5016780, “Development of a Cell-penetrating Peptide that Exhibits Responsive Changes in its Secondary Structure in the Cellular Environment” (Scientific Reports, 2016)
